Assay results published in patent US11485758B2, “Bi-terminal pegylated integrin-binding peptides and methods of use thereof” (The Regents of the University of California, priority 2014, dated 2022).
Read-outs that look alike come from different tables or passages of the source. Where a SMILES comes first, the peptide text is derived from it. Where no end group is shown, it is not given here. The star is where a group is joined. Benzoyl(4-F) = O=C(c1ccc(F)cc1)*

Legend:
[1] = system: integrin αvβ6-expressing DX3puroβ6 cell line; assay: Cell binding and internalization of radiotracers, DX3puroβ6 cells; assay type: cell-based, human; conditions: for Affinity and selectivity for the αvβ6(+)-expressing cell line DX3puroβ6, in words: cell binding vs DX3puro control
[2] = system: BxPC-3 tumors (endogenous αvβ6-expression); conditions: 1 h; blocking with 30 mg/kg FBA-PEG28-A20FMDV2 at T=−10 min
Protocol: (PBS) or 37° C. (serum), followed by analysis on radio HPLC. Data are expressed as % probe remaining intact in sample. […] Tumor models—DX3puroβ6/DX3puro: Human melanoma cell line. DX3puroβ6 has been stably transfected to express integrin αvβ6. DX3puro is negative control cell line. […] BxPC-3: Pancreatic cell line with endogenous αvβ6-expression. MIA PaCa-2: Pancreatic cell line, no αvβ6-expression.

[3] = system: BxPC-3 cells (endogenous αvβ6(+)-expression); conditions: 60 min incubation
[4] = system: αvβ6-negative DX3puro control cell line; assay: Cell binding and internalization of radiotracers, DX3puro control cells; assay type: cell-based, human
[5] = biological target: T1, αvβ6 integrin (Homo sapiens, UniProt P06756+P18564); assay: Competitive binding ELISA of [19F]FBA peptides for integrin αvβ6
T1 construct: purchased R&D systems (Minneapolis, Minn.)
Protocol: Affinity of each peptide was assessed ELISA on Nunc Maxisorp Flat-bottom 96 well plates (affymetrix ebioscience, San Diego, Calif.). Integrin alpha V antibody P2W7 was purchased from Novus Biologicals (Littleton, Colo.). Bovine serum albumin (BSA) was purchased from VWR (Randor, Pa.) and TMB one solution was purchased from Promega (Madison, Wis.). αvβ6 integrin was purchased from R&D systems (Minneapolis, Minn.). Protein biotinylation kit was purchased from Amersham plc (Amersham, UK) while competing natural ligand fibronectin was purchased from Invitrogen (Carlsbad, Calif.). Affinity was measured in absorbance units by the Thermo Multiscan Plate reader with associated Ascent Software (Thermofisher, Waltham, Mass.).
The peptides were allowed to compete for 1 h with biotinylated fibronectin, a natural ligand for αvβ6; or biotinylated vitronectin, when competing against αvβ3. Briefly, a 96-well plate was coated with 50 μL/well of 5 μg/mL P2W7 in phosphate buffered saline (PBS) at 37° C. for 1 h. The plate was washed three times with PBS followed by treatment with PBS containing 5% bovine serum albumin (BSA; fraction V; w/v) and 1% Tween 20 (v/v) at 4° C. for 16 h to block nonspecific binding. The plate was washed with PBS and coated with 50 μL/well integrin in wash buffer (WaB) for 1 h and then washed three times with WaB. WaB consisted of a solution of 2 mmol/L Tris buffer (pH 7.6), 150 mmol/L sodium chloride, 1 mmol/L manganese chloride, and 0.1% Tween 20 (v/v) in deionized water. Triplicate wells were coated with 50 μL/well of a mixture of equal volumes of biotinylated fibronectin (BtFn) for αvβ6, or biotinylated vitronectin (BtVn) for αvβ3, in conjugate buffer, consisting of 1% BSA (fraction V; w/v) in WaB, and a serial dilution of peptide stock (2 mmol/L; 10% DMSO (v/v) in water) from 1 μM to 1 pM. Wells containing no peptide, no peptide and no antibody, or no peptide and no ligand served as controls. The plate was incubated for 1 h at room temperature and washed three times with WaB before ExtrAvidin-horseradish peroxidase conjugate was added (50 μL/well, 1:1,000 dilution in conjugate buffer) at room temperature for 1 h. After washing with WaB, bound BtFn or BtVn was detected by addition of TMB (50 μL/well) and incubation for 10 to 15 min. The reaction was terminated by adding 50 μL/well […] sulfuric acid and absorbance was measured at 450 nm (yellow color of acidified oxidized TMB, indicating fibronectin binding). Calculations of IC50 values are based on data analysis with Prism software (GraphPad Software).

T1 sequence (P06756 31-889 limits assumed): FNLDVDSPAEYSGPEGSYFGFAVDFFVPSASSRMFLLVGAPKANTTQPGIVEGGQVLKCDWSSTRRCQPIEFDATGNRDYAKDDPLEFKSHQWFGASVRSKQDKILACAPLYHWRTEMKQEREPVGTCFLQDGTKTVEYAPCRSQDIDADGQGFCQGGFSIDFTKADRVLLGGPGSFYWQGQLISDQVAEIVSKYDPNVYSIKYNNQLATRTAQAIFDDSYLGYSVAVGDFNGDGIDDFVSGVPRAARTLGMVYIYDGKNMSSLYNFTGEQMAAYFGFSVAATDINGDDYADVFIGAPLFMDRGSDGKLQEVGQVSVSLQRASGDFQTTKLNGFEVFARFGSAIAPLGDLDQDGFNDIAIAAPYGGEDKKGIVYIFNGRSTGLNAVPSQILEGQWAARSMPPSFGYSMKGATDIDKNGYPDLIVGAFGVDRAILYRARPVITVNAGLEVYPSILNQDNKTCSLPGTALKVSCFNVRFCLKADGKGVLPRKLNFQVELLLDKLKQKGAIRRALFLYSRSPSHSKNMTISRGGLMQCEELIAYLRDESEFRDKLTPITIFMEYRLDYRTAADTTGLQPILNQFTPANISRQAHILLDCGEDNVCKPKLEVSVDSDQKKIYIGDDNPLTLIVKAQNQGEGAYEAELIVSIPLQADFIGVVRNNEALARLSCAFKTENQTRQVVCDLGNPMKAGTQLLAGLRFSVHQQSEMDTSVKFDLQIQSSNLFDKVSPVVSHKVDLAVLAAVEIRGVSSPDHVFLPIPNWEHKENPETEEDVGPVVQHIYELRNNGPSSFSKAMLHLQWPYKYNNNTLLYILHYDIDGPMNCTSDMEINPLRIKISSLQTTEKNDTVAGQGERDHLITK
T1 sequence (P06756 891-992 limits assumed): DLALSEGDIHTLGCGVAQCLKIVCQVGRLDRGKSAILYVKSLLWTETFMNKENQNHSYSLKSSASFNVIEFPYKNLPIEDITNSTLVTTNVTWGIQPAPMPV
T1 sequence (P18564 22-707 limits assumed): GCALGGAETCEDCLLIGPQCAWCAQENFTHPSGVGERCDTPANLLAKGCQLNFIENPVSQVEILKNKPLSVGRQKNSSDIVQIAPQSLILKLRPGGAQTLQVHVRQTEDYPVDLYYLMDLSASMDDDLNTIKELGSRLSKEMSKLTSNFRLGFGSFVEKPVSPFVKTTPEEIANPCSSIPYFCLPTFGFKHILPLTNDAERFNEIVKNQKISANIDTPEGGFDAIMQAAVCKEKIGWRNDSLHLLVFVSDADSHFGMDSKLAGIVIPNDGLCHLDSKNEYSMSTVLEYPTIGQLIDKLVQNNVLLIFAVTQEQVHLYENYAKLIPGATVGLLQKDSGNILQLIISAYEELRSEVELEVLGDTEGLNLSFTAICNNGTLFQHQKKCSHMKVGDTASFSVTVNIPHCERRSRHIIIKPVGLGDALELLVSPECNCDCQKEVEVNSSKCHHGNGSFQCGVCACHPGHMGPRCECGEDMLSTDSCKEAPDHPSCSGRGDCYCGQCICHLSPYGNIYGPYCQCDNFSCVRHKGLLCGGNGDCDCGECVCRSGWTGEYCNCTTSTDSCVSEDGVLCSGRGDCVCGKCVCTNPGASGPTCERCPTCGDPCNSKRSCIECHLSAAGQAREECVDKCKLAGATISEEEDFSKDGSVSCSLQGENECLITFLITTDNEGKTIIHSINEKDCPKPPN

Molecule: 18F-FBA-PEG28-A20FMDV2-PEG28 [compound 5]
- Binding to DX3puroβ6 cells (fraction of total radioactivity) ([1]; 60 min incubation): 51.0±0.9%
- Internalization into DX3puroβ6 cells (of total radioactivity) ([1]; 60 min incubation): 33.5±1.8%
- Reduction of BxPC-3 tumor uptake vs unblocked [2]: 92%
- Binding to BxPC-3 cells (fraction of total radioactivity) [3]: 37.2±1.9%
- Internalization into BxPC-3 cells (of total radioactivity) [3]: 28.4±0.9%
- Binding to DX3puro control cells ([4]; 60 min incubation): 3.5±0.2%
- Internalization into DX3puro control cells ([4]; 60 min incubation): 0.9±0.1%

Molecule: CC(C)C[C@H](NC(=O)[C@H](CC(=O)O)NC(=O)[C@H](CO)NC(=O)[C@@H](N)CCCNC(=N)N)C(=O)N[C@H](C(=O)N1CCC[C@H]1C(=O)N[C@@H](CC(C)C)C(=O)N[C@@H](Cc1ccccc1)C(N)=O)[C@@H](C)O (H-RSDLTPLF-NH2)
- IC50 [5]: 7 nM
- Selectivity for αvβ6 over αvβ3 [5]: 100 times

Molecule: CC(C)C[C@H](NC(=O)[C@H](CC(=O)O)NC(=O)[C@H](CO)NC(=O)[C@H](CCCNC(=N)N)NC(=O)c1ccc(F)cc1)C(=O)N[C@H](C(=O)N1CCC[C@H]1C(=O)N[C@@H](CC(C)C)C(=O)N[C@@H](Cc1ccccc1)C(N)=O)[C@@H](C)O ({Benzoyl(4-F)}-RSDLTPLF-NH2)
- IC50 [5]: 7 nM

Molecule: CC(C)C[C@H](NC(=O)[C@H](CC(=O)O)NC(=O)CNC(=O)[C@H](CCCNC(=N)N)NC(=O)[C@H](CC(C)C)NC(=O)[C@H](CC(N)=O)NC(=O)[C@@H]1CCCN1C(=O)[C@@H](NC(=O)[C@H](C)NC(=O)[C@H](CC(N)=O)NC(=O)CCOCCOCCOCCOCCOCCOCCOCCOCCOCCOCCOCCOCCOCCOCCOCCOCCOCCOCCOCCOCCOCCOCCOCCOCCOCCOCCOCCOCCNC(=O)c1ccc(F)cc1)C(C)C)C(=O)N[C@@H](CCC(N)=O)C(=O)N[C@H](C(=O)N[C@@H](CC(C)C)C(=O)N[C@@H](C)C(=O)N[C@@H](CCC(N)=O)C(=O)N[C@@H](CCCCN)C(=O)N[C@H](C(=O)N[C@@H](C)C(=O)N[C@@H](CCCNC(=N)N)C(=O)N[C@H](C(=O)NCCOCCOCCOCCOCCOCCOCCOCCOCCOCCOCCOCCOCCOCCOCCOCCOCCOCCOCCOCCOCCOCCOCCOCCOCCOCCOCCOCCOCCC(N)=O)[C@@H](C)O)C(C)C)C(C)C [PEGylated A20FMDV2 not bearing K(IPA)E]
- Binding to DX3puroβ6 cells (fraction of total radioactivity) ([1]; 60 min incubation): 52%
- Internalized share of bound radioactivity, DX3puroβ6 cells ([1]; of bound radioactivity): 44%
- Binding and internalization in DX3puro control, in words [4]: low

Molecule: D(KLAKLAK)2-GG-PEG28-A20FMDV2-K
- Affinity and selectivity for the αvβ6(+)-expressing cell line DX3puroβ6, in words [1]: does not affect its affinity, specificity, and internalization-potential

Molecule: PEG28-A20FMDV2(K16R)-PEG28
- Internalization in αvβ6 cells ([1]; 1 h, basis not given): > 50%
- Binding to DX3puroβ6 cells (fraction of total radioactivity) ([1]; 60 min incubation): > 70%

Molecule: PEG28-A20FMDV2-GG-D(KLAKLAK)2-K
- Affinity and selectivity for the αvβ6(+)-expressing cell line DX3puroβ6, in words [1]: does not affect its affinity, specificity, and internalization-potential

Molecule: c(RSDLTPLFE)K([^19F]FBA)-NH2 (RSDLTPLFEK((19F)FBA)-NH2; bridge (positions not given here); also: residues 1-9 cyclized, mode not given here)
- IC50 ([5]; ELISA, calculated by PRISM, read-out: IC50 against αvβ6): > 300 nM
